Measured values published in article PMC7696666, “Epithelial Transfer of the Tyrosine Kinase Inhibitors Erlotinib, Gefitinib, Afatinib, Crizotinib, Sorafenib, Sunitinib, and Dasatinib: Implications for Clinical Resistance” (Cancers, 2020).
Values joined by “and” are separate entries in the source; they are usually repeats but may differ in a detail not shown here. Equal values may be shown once. “Also recorded” adds a separate entry of the source. Read-outs that look alike come from different tables or passages of the source.

What was measured:
[1] = parameters: method as in PMID 30544701; details: method not given, ref [45], cited from earlier work
[2] = system: CaCo2 cells; assay: Intracellular accumulation in CaCo2 Transwell cells at the end of the transport period; format: in vitro ADME, human; details: for Intracellular accumulation at the end of the transfer period (A->B): A->B incubation
Method: (§1) In order to get insight in the barrier role of the CaCo2 model system, we determined the intracellular accumulation of the TKISs at the end of the transport period, in normal monolayers of CaCo2 cells and in several other colon cancer cell lines. At the end of the transport period (both from the B->A and A->B incubations), cells were harvested and intracellular accumulation was determined.
(§2) These cells were exposed to 20 μM of a TKI and were harvested after 2 h for determination of TKI concentration with LC-MS-MS. Values are means ± SEM for the number of experiments described in Figure 3, Figure 4, and Figure 5 and from three separate experiments for the monolayer CaCo2 and WiDr cells. […] A->B, mass transport from A to B; B->A, mass transport from B to A. For AFA, CRI, and DAS, no data in WiDr cells were available. […] The bar heights were not read.
(§3) In a different set of experiments, the CaCo2 cells were cultured in 6-wells plates as monolayers until semiconfluency. Two other colon cancer cell lines, WiDr and HT29, were cultured similarly. These cells were exposed for 2 h to various TKIs at concentrations varying from 50 nM to 20 µM). […] At the end of the incubation, cells were harvested, as described earlier, and extracted for drug analysis using LC-MS-MS as described above.

[3] = system: CaCo2 monolayer; assay: CaCo2 Transwell transport (Papp, efflux ratio); format: in vitro ADME, human; details: for Papp basolateral to apical: B–A
Method: (§4) The Transwell system was developed using the wild type Caco-2 cell line (passage 15–25) cultured in Dulbecco’s […] medium (DMEM) at standard conditions of 37 °C, 5% CO2, and 100% humidity as previously reported. […] To ensure a controlled growth environment the plate was covered with Breathe-Easier cell culture foil during the incubation period. The integrity of the developed monolayer was assessed by TEER before administration of compound solutions and after the final sampling stage.
(§5) The initial concentration of the drug was verified from a 20 µL sample taken immediately from the donor compartment after drug administration (t = 0).
(§6) The permeability coefficient (Papp) represents a measure for the efficiency of transport and was calculated with the following equation: Papp=ΔQ/Δt×V/C0⋅A where ∆Q/∆t = the rate of increase in drug concentration (accumulative mass transport) in the receiver compartment over time (µM/s), V = volume in the receiver compartment (mL), C0 = the initial concentration of drug in the donor compartment (µM), and A = the membrane surface area (cm^2).
(§7) To take into account the slightly nonlinear transfer characteristics of each compound, the rate of increase in drug concentration was determined for each time period and the Papp was then calculated. The average Papp was then determined with units of cm/s × 10^−6 or µm/s.
(§8) The efflux ratio was calculated according to the equation: Efflux ratio=PappB→A/PappA→B.
(§9) Statistical significance was determined using a simple Student’s t-test where a p value of <0.05 was considered significant.

[4] = CaCo2 Transwell transport (Papp, efflux ratio); format: in vitro ADME, human; details: human; for efflux ratio at 180 min, 10 µM / efflux ratio at 180 min, 20 µM: read-out: Efflux Ratio (Papp B–A / Papp A–B); for Papp A→B at 180 min, 10 µM / Papp A→B at 180 min, 20 µM: read-out: Papp (Apical Basolateral); for Papp B→A at 180 min, 10 µM / Papp B→A at 180 min, 20 µM: read-out: Papp (Basolateral Apical); for efflux ratio at 180 min, 20 µM: Caco-2, 20 µM
Method: as §4, §5, §6, §7, §8, §9

[5] = Disposition in blood compartments (whole blood, plasma, serum) of patients; format: in vivo, human; details: for blood plasma ratio: human, whole blood and plasma, oral
Method: Each individual sample was divided into two components; a 1 mL of tube of whole blood and 0.5 of plasma, each sample was stored at −20 °C until analysis could be performed. An additional serum sample was also obtained for patients treated with erlotinib. Blood samples for afatinib were obtained from NSCLC patients after 4 days receiving the standard daily dose of 40 mg.
Blood samples were taken at 1, 2, and 30 days after the start of treatment. Samples were separated from the whole blood into plasma, serum, and a packed red blood cell pellet (using the MESED apparatus). In a dose escalation study in order to determine whether a high pulsatile dose of sorafenib could be given to patients, we analyzed red blood cells and whole blood in 12 patients treated with sorafenib at total doses ranging from 2000 to 2800 mg daily. From these patients, samples were collected in 3 cycles.
For sunitinib, initially pharmacokinetic samples were collected over the first 24 h period from a single patient, with a renal cell carcinoma receiving a nonstandard treatment schedule (700 mg biweekly), in comparison to the standard 50 mg daily dose. Whole blood samples were divided into plasma, serum, and a packed red blood cell pellet. This cohort could later be extended with 6 patients treated with 800 mg sunitinib every 2 weeks enrolled in a clinical study to determine the tolerability of pulsatile sunitinib.
Five blood samples were taken over a 5-month period and divided into whole blood, an extracted 100 µL of red blood cells, and a plasma sample.

[6] = system: CaCo2 cells; assay: Intracellular accumulation in CaCo2 cells grown as normal monolayers; format: in vitro ADME, human; details: 20 μM, 2 h
Method: as §2, §3

[7] = system: HT29 cells; assay: Intracellular accumulation in HT29 colon cancer cells; format: in vitro ADME; details: after 24 h
Method: as §1
In a different set of experiments, the CaCo2 cells were cultured in 6-wells plates as monolayers until semiconfluency. Two other colon cancer cell lines, WiDr and HT29, were cultured similarly. […]

[8] = system: CaCo2 monolayer; details: cited from earlier work; for Papp (Apical Basolateral) / Papp (Basolateral Apical) / Efflux Ratio (Papp B–A / Papp A–B): 20 µM, previously reported, ref [39]; for Papp (Apical Basolateral): A–B; for Papp (Basolateral Apical): B–A
[9] = system: WiDr cells; assay: Intracellular accumulation in WiDr colon cancer cells (monolayer); format: in vitro ADME; details: 20 μM, 2 h
Method: as §2, §3

[10] = Caco-2, with sorafenib (co-incubated, concentration not stated), 10 µM, with sorafenib
[11] = clinical samples, read-out: Blood to plasma ratio
[12] = Caco-2, with erlotinib (co-incubated, concentration not stated), 10 µM, with erlotinib

Intracellular accumulation at the end of the transfer period (A->B) [2]	Efflux Ratio (Papp B–A / Papp A–B) ([3]; 10 µM)	Papp apical to basolateral ([3]; 10 µM, A–B)	Total amount transferred apical to basolateral in 3 h ([3]; 10 µM, A–B)	Papp basolateral to apical ([3]; 10 µM)	efflux ratio at 180 min, 10 µM ([4]; Caco-2, 10 µM)	Papp A→B at 180 min, 10 µM ([4]; Caco-2, 10 µM)	Papp B→A at 180 min, 10 µM ([4]; Caco-2, 10 µM)	Intracellular accumulation in HT29 cells [7]	blood plasma ratio [5, 11]	Total amount transferred apical to basolateral in 3 h ([3]; 20 µM, A–B)	efflux ratio at 180 min, 20 µM [4]	Papp A→B at 180 min, 20 µM ([4]; Caco-2)	Papp B→A at 180 min, 20 µM ([4]; Caco-2)	Structure (SMILES)	Log P [1]	Log D (pH 5.5) [1]	Log D (pH 7.5) [1]	Papp (Apical Basolateral) [8]	Papp (Basolateral Apical) [8]	Efflux Ratio (Papp B–A / Papp A–B) [8]	also measured
0.45 pmol/μg protein	7.3	14.8 nm/s	90 pmol	109 nm/s	> 5	15 ± 22 nm/s	109 ± 50 nm/s	–	–	–	–	–	–	CN(C)C/C=C/C(=O)Nc1cc2c(Nc3ccc(F)c(Cl)c3)ncnc2cc1O[C@H]1CCOC1 [Afatinib, afatinib]	3.59	1.00	2.87	–	–	–	Papp apical to basolateral ([3]; 10 µM, A–B, listed as afatinib): 15 nm/s; Efflux Ratio (Papp B–A / Papp A–B) ([3]; 10 µM, listed as afatinib): 7.34 and > 6
2.11 pmol/μg protein	–	–	nothing could be detected	–	> 5	–	77 ± 55 nm/s	–	–	–	–	–	–	C[C@@H](Oc1cc(-c2cnn(C3CCNCC3)c2)cnc1N)c1c(Cl)ccc(F)c1Cl [Crizotinib, crizotinib]	4.73	0.30	1.80	–	–	–	Papp (Apical Basolateral) ([3]; 10 µM, A–B): Unmeasurable; Effect of exposure on CaCo2 cells and membrane ([3]; 20 µM exposure): caused cell death and disruption of the membrane; A–B mass transport at 20 µM, fold lower than B–A mass transport at 10 µM ([3]; A–B 20 µM vs B–A 10 µM): 20 fold; Whole blood concentration higher than plasma ([5]; standard dose (250 mg twice daily), single patient): 30%
0.79 pmol/μg protein	0.3	5.7 nm/s	–	0.19 µm/s	0.33	5.7 ± 4.3 nm/s	1.9 ± 1.2 nm/s	–	–	–	–	–	–	COc1cc2ncnc(Nc3ccc(F)c(Cl)c3)c2cc1OCCCN1CCOCC1 [Gefitinib, gefitinib]	4.11	1.96	3.55	0.38 ± 0.05 ×10^−6 cm/s	0.39 ± 0.038 ×10^−6 cm/s	1.0	Efflux ratio after treatment with NaN3 ([8]; after NaN3, ref [38],[39]): 0.46
1.65 pmol/μg protein	–	–	–	–	0.92	101 ± 95 nm/s	93 ± 58 nm/s	6 pmol/μg protein	> 3	approximately 950 pmol	0.86	141 ± 115 nm/s	114 ± 56 nm/s	CNC(=O)c1cc(Oc2ccc(NC(=O)Nc3ccc(Cl)c(C(F)(F)F)c3)cc2)ccn1 [Sorafenib, sorafenib]	5.16	4.26	4.26	–	–	–	Efflux Ratio (Papp B–A / Papp A–B) ([3]; 20 µM): 0.81; Efflux Ratio (Papp B–A / Papp A–B) ([3]; 20 µM, listed as sorafenib): 0.8; efflux ratio at 180 min, 10 µM [4, 12]: 0.71; Papp A→B at 180 min, 10 µM [4, 12]: 186 ± 132 nm/s; Papp B→A at 180 min, 10 µM [4, 12]: 133 ± 105 nm/s; blood plasma ratio ([5]; 2000–2800 mg cumulative daily dose, 12 patients, mean ± SD, read-out: Whole blood/plasma ratio): 1.2 ± 0.4; Fold increase of concentration in whole blood compared to plasma ([5]; low dose (400 mg twice daily), several patients): 2–4 fold
11.9 pmol/μg protein	–	–	–	–	–	–	–	32.2 pmol/μg protein	–	581.2 pmol	1.6	77 ± 46 nm/s	126 ± 123 nm/s	CCN(CC)CCNC(=O)c1c(C)[nH]c(/C=C2\C(=O)Nc3ccc(F)cc32)c1C [Sunitinib, sunitinib]	3.15	−0.09	1.09	–	–	–	blood plasma ratio ([5]; 50 mg, standard treatment at 50 mg, read-out: Whole blood/plasma ratio): 0.7; blood plasma ratio ([5]; single dose 14-fold higher than standard, 7 patients, mean ± SD, read-out: Whole blood/plasma ratio): 2.6 ± 0.7; Whole blood concentration lower than plasma ([5]; standard dosing regimen): 40–50%

Structure (SMILES)	Intracellular accumulation at the end of the transfer period (A->B) [2]	Efflux Ratio (Papp B–A / Papp A–B) ([3]; 10 µM)	Papp apical to basolateral ([3]; 10 µM, A–B)	Total amount transferred apical to basolateral in 3 h ([3]; 10 µM, A–B)	Papp basolateral to apical ([3]; 10 µM)	efflux ratio at 180 min, 10 µM ([4]; Caco-2, 10 µM)	Papp A→B at 180 min, 10 µM ([4]; Caco-2, 10 µM)	Papp B→A at 180 min, 10 µM ([4]; Caco-2, 10 µM)	Intracellular accumulation in HT29 cells [7]	blood plasma ratio [5, 11]	Total amount transferred apical to basolateral in 3 h ([3]; 20 µM, A–B)	efflux ratio at 180 min, 20 µM [4]	Papp A→B at 180 min, 20 µM ([4]; Caco-2)	Papp B→A at 180 min, 20 µM ([4]; Caco-2)	Log P [1]	Log D (pH 5.5) [1]	Log D (pH 7.5) [1]	Papp (Apical Basolateral) [8]	Papp (Basolateral Apical) [8]	Efflux Ratio (Papp B–A / Papp A–B) [8]	also measured
C#Cc1cccc(Nc2ncnc3cc(OCCOC)c(OCCOC)cc23)c1 [Erlotinib, erlotinib]	not detectable; also recorded: no erlotinib was detectable	–	0.48 µm/s	–	–	1.6	4.8 ± 2.6 nm/s	7.9 ± 6.5 nm/s	0.035 pmol/μg protein	> 30	–	–	–	–	2.39	2.74	3.04	0.13 ± 0.001 ×10^−6 cm/s	0.70 ± 0.30 ×10^−6 cm/s	5.4	Intracellular accumulation in CaCo2 monolayer [6]: just detectable; Intracellular accumulation at the end of the transfer period (B->A) ([2]; B->A incubation): no erlotinib was detectable; efflux ratio at 180 min, 10 µM [4, 10]: 1.4; Papp A→B at 180 min, 10 µM [4, 10]: 3.5 ± 1.7 nm/s; Papp B→A at 180 min, 10 µM [4, 10]: 4.8 ± 3 nm/s; Efflux Ratio (Papp B–A / Papp A–B) ([8]; listed as erlotinib): > 5; Fold higher in whole blood compared to plasma ([5]; standard dosing regimen, clinical samples): 100 fold; Intracellular accumulation in WiDr cells [9]: no erlotinib
